From patent US10544140B2, “Pharmaceutical composition containing, as active ingredient, 7-azaindolin-2-one derivative or pharmaceutically acceptable salt thereof” (LG CHEM, LTD., priority 2015, dated 2020) come the findings set out here.

In data set [1] the test system is MCF-7 (human breast cancer cell line). Put plainly: Cytotoxicity test by MTT assay, MCF-7. In kind it is cell-based. The following applies: for cytotoxicity at 30 µM / IC50: Homo sapiens, MCF7; for cytotoxicity at 30 µM: MCF-7, 30 μM, 48 h, read-out: Cell viability (% inhibition); for IC50: MCF-7, 48 h; for cytotoxicity compared with the reference drug sunitinib: MCF-7. Background: Tetrazolium dyes change colour on reduction, which living cells bring about.

Data set [2] can be described thus: Cytotoxicity test by MTT assay, CHO-K1 normal cell line. In kind it is cell-based. To be noted: Chinese hamster, CHO-K1 cells (normal cell line). As to the method:
(§1) A cytotoxicity test was measured by MTT assay. Each cell line was cultured in a 96-well plate at a density of 1×10^4 cells/well. After 24 hours, the culture medium containing 1% FBS (fetal bovine serum) was treated and reacted with compounds or solutions of compounds for 48 hours. MTT (3-(4,5-dimethylthiazol-2-yl)-2,5-diphenyltetrazolium bromide) solution (5 mg/mL) was added to each well and reacted for 4 hours in an incubator. […] After reacting in an incubator for 30 minutes, the formation of formazan was quantified using a microplate reader at an absorbance of 540 nm.

Another data set relates to A549 (lung cancer). Description: Cytotoxicity test by MTT assay, A549. To be noted: for IC50: Homo sapiens, A549, 48 h; for cytotoxicity compared with the reference drug sunitinib: A-549. In kind it is cell-based, human. As to the method:
as §1, with “nm. […] The human cancer cell lines used herein are MCF-7 (breast cancer), MDA-MB-231 (breast cancer), HT-29 (colon cancer), DU145 (prostate cancer), U937 (myeloid leukemia), A549 (lung cancer), PANC-1 (pancreatic cancer) and MIA PaCa-2 (pancreatic cancer).” for “nm.”

Data set [3] has as its system MIA PaCa-2 (pancreatic cancer). Description: Cytotoxicity test by MTT assay, MIA PaCa-2. To be noted: for IC50: Homo sapiens, MIA PaCa-2, 48 h. In kind it is cell-based, human. As to the method:
as §1, with “nm. […] The human cancer cell lines used herein are MCF-7 (breast cancer), MDA-MB-231 (breast cancer), HT-29 (colon cancer), DU145 (prostate cancer), U937 (myeloid leukemia), A549 (lung cancer), PANC-1 (pancreatic cancer) and MIA PaCa-2 (pancreatic cancer).” for “nm.”

The nature of data set [4]: Cytotoxicity test by MTT assay, HEK293 normal cell line. In kind it is cell-based. To be noted: human, HEK293 cells (normal cell line). As to the method:
as §1

The subject of the next data set is HT-29 (colon cancer). Description: Cytotoxicity test by MTT assay, HT-29. In kind it is cell-based, human. The following applies: for IC50: Homo sapiens, HT-29, 48 h; for cytotoxicity compared with the reference drug sunitinib: HT-29. As to the method:
as §1, with “nm. […] The human cancer cell lines used herein are MCF-7 (breast cancer), MDA-MB-231 (breast cancer), HT-29 (colon cancer), DU145 (prostate cancer), U937 (myeloid leukemia), A549 (lung cancer), PANC-1 (pancreatic cancer) and MIA PaCa-2 (pancreatic cancer).” for “nm.”

The test system of data set [5] is PANC-1 (human pancreatic cancer cell line). Description: Cytotoxicity test by MTT assay, PANC-1. In kind it is cell-based. The following applies: for IC50 / cytotoxicity at 30 µM: Homo sapiens; for IC50: PANC-1, 48 h; for cytotoxicity at 30 µM: PANC-1, 30 μM, 48 h, read-out: Cell viability (% inhibition).
For another data set, the system named is DU145 (prostate cancer). Description: Cytotoxicity test by MTT assay, DU145. In kind it is cell-based, human. To be noted: DU-145; for IC50: Homo sapiens, DU145, 48 h. As to the method: as §1, with “nm. […] The human cancer cell lines used herein are MCF-7 (breast cancer), MDA-MB-231 (breast cancer), HT-29 (colon cancer), DU145 (prostate cancer), U937 (myeloid leukemia), A549 (lung cancer), PANC-1 (pancreatic cancer) and MIA PaCa-2 (pancreatic cancer).” for “nm.”

For data set [6], the system named is MDA-MB-231 (breast cancer). Put plainly: Cytotoxicity test by MTT assay, MDA-MB-231. In kind it is cell-based, human. To be noted: for IC50: Homo sapiens, MBA-MB-231, 48 h. How it is done:
as §1, with “nm. […] The human cancer cell lines used herein are MCF-7 (breast cancer), MDA-MB-231 (breast cancer), HT-29 (colon cancer), DU145 (prostate cancer), U937 (myeloid leukemia), A549 (lung cancer), PANC-1 (pancreatic cancer) and MIA PaCa-2 (pancreatic cancer).” for “nm.”

For the next data set, the system named is U937 (myeloid leukemia). Put plainly: Cytotoxicity test by MTT assay, U937. In kind it is cell-based, human. The following applies: for IC50: Homo sapiens, U-937, U937, 48 h. As to the method:
as §1, with “nm. […] The human cancer cell lines used herein are MCF-7 (breast cancer), MDA-MB-231 (breast cancer), HT-29 (colon cancer), DU145 (prostate cancer), U937 (myeloid leukemia), A549 (lung cancer), PANC-1 (pancreatic cancer) and MIA PaCa-2 (pancreatic cancer).” for “nm.”

Structures are written as SMILES.

For the compound `Cc1nc2c(c(C)c1O)/C(=C/c1ccc(N(C)C)cc1)C(=O)N2` [Compound I-18, (Z)-3-(4-(Dimethylamino)benzylidene)-5-hydroxy-4,6-dimethyl-1H-pyrrolo[2,3-b]pyridin-2(3H)-one], the cytotoxicity at 30 µM came out at 62.5% in data set [1] and 66.3% in data set [5]. For the same compound, the IC50 (in general, the concentration that gives 50% inhibition) in data set [1] worked out at 13.2 µM; with A549 (lung cancer) it was 13.2 µM; in [3], 11.5 µM; in the data set on HT-29 (colon cancer) it was 36.3 µM; in data set [5] it was 13.8 µM; in the data set with DU145 (prostate cancer), 1.14 µM. Moreover, in data set [6], the IC50 was 12.1 µM. Also, the IC50 at 48 h in data set [2] and in [4] was above 90 µM throughout. The “cytotoxicity compared with the reference drug sunitinib” value (in [5] (PANC-1); in the data set with DU145 (prostate cancer)) was “greater than or equal to that of the reference drug sunitinib” in each case.
For the compound `CCN(CC)CCNC(=O)c1c(C)[nH]c(/C=C2\C(=O)Nc3nc(C)c(O)c(C)c32)c1C` [Compound I-39, (Z)—N-(2-(Diethylamino)ethyl)-5-((5-hydroxy-4,6-dimethyl-2-oxo-1H-pyrrolo[2,3-b]pyridin-3(2H)-ylidene)methyl)-2,4-dimethyl-1H-pyrrole-3-carboxamide], the cytotoxicity at 30 µM amounted to 62.7% in [1] and 69.6% in [5]. The IC50 amounted to 6.09 µM in data set [1]; 19.9 µM with A549 (lung cancer); 7.94 µM in [3]; 20.9 µM in the data set on HT-29 (colon cancer); 8.01 µM in the data set with U937 (myeloid leukemia); 15.1 µM in data set [5]. The IC50 with DU145 (prostate cancer) turned out to be 2.88 µM; in data set [6], 5.31 µM. The “cytotoxicity compared with the reference drug sunitinib” value (in data set [1]; in data set [3] (MIA PaCa-2); in data set [5] (PANC-1); in the data set on DU145 (prostate cancer); in [6]) was “greater than or equal to that of the reference drug sunitinib” each time. Further, the IC50 at 48 h in data set [2] was above 90 µM; in [4] it was 40.7 µM.
As for `CCNCCNC(=O)c1c(C)[nH]c(/C=C2\C(=O)Nc3nc(C)c(O)c(C)c32)c1C` [Compound I-40, (Z)—N-(2-(Ethylamino)ethyl)-5-((5-hydroxy-4,6-dimethyl-2-oxo-1H-pyrrolo[2,3-b]pyridin-3(2H)-ylidene)methyl)-2,4-dimethyl-1H-pyrrole-3-carboxamide], the IC50 in data set [1] stood at 1.32 µM; in the data set on A549 (lung cancer) it was 1.47 µM; in data set [3], 1.58 µM; with HT-29 (colon cancer) it was 1.45 µM; in [5] it was 1.02 µM; with DU145 (prostate cancer), 0.26 µM. In addition, in data set [6], the IC50 was 1.47 µM. The “cytotoxicity compared with the reference drug sunitinib” value (in data set [1]; in the data set with A549 (lung cancer); in data set [3] (MIA PaCa-2); with HT-29 (colon cancer); in data set [5] (PANC-1); with DU145 (prostate cancer)) was “greater than or equal to that of the reference drug sunitinib” each time. For the same compound, the “cytotoxicity compared with the reference drug sunitinib” value in [6] was “greater than or equal to that of the reference drug sunitinib”. In addition, the IC50 at 48 h came out at 40.7 µM in [2] and 19.1 µM in data set [4].
Turning to `Cc1nc2c(c(C)c1O)/C(=C/c1[nH]c(C)c(C(=O)NC3CCCCC3)c1C)C(=O)N2` [Compound I-41, (Z)—N-Cyclohexyl-5-((5-hydroxy-4,6-dimethyl-2-oxo-1H-pyrrolo[2,3-b]pyridin-3(2H)-ylidene)methyl)-2,4-dimethyl-1H-pyrrole-3-carboxamide], the figures for the cytotoxicity at 30 µM in [1] and in data set [5] were 78.1% and 78.3%, respectively. Also, the 50% inhibitory concentration (IC50) in data set [1] is 6.9 µM; with A549 (lung cancer), 6.08 µM; in data set [3], 5.01 µM; in the data set with HT-29 (colon cancer), 4.47 µM; in the data set with U937 (myeloid leukemia), 3.21 µM; in [5], 5.88 µM. Also, the IC50 in the data set with DU145 (prostate cancer) was below 1 µM; in [6], 3.52 µM. Further, the “cytotoxicity compared with the reference drug sunitinib” value (in data set [1]; with A549 (lung cancer); in data set [3] (MIA PaCa-2); with HT-29 (colon cancer); with U937 (myeloid leukemia) (U937); in data set [5] (PANC-1)) was “greater than or equal to that of the reference drug sunitinib” throughout. Besides, the “cytotoxicity compared with the reference drug sunitinib” value (in the data set with DU145 (prostate cancer); in data set [6]) was “greater than or equal to that of the reference drug sunitinib” each time. Further, the IC50 at 48 h came to 43.4 µM in data set [2] and 37.1 µM in data set [4].
With `Nc1ccn([C@@H]2O[C@H](CO)[C@@H](O)C2(F)F)c(=O)n1` [Gemcitabine, reference compound], the IC50 in data set [3] and in [5] was above 1000 µM each time. The “resistance of the cell line to the drug” value in [3] (MIA PaCa-2) and in [5] (PANC-1) was “resistance to gemcitabine” each time.
As to `CCN(CC)CCNC(=O)c1c(C)[nH]c(/C=C2\C(=O)Nc3ccc(F)cc32)c1C` [Sunitinib, sunitinib, reference compound], the IC50 amounted to 6.98 µM in the data set on A549 (lung cancer); 8.51 µM in data set [3]; 4.89 µM in the data set with HT-29 (colon cancer); 6.98 µM with U937 (myeloid leukemia); 5.88 µM in the data set on DU145 (prostate cancer); 6.09 µM in [6]. In [4], this compound displayed an IC50 at 48 h of 7.3 µM.
